From ChEMBL document CHEMBL5029141, “Three-Dimensional Proteome-Wide Scale Screening for the 5-Alpha Reductase Inhibitor Finasteride: Identification of a Novel Off-Target” (J Med Chem, 2021) come the findings set out here.

The structures appear in SMILES notation. Active and inactive are the calls of the source. The calls are words filed in the database; no cut-off is given here.

In assay [1] the target is T1, Phenylethanolamine N-methyltransferase (Homo sapiens) (UniProt P11086).
T1 sequence (whole entry): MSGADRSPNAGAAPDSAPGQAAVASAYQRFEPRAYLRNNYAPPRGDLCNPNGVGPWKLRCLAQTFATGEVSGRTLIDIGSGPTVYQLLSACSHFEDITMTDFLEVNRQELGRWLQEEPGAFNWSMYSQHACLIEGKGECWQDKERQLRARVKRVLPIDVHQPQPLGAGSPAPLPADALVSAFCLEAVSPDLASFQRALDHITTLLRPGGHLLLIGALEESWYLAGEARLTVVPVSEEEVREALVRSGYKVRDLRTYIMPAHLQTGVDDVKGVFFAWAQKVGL
In words: Inhibition of human recombinant PNMT using AdoMet and DL-norepinephrine hydrocloride as substrate preincubated for 30 mins followed by substrate addition and measured after 30 mins by fluorescence based analysis relative to control. The conditions noted are these: time 1.0 hrs.

In assay [2] the test system is Rattus norvegicus. As to the kind of experiment: Effect on PNMT protein expression level in Sprague-Dawley rat at 1 mg, sc once daily treated for 20 days and measured after 24 hrs post last dose by western blot analysis. Type of assay: functional, organism-based. Particulars: time 20.0 day.
The test system of assay [3] is Rattus norvegicus. As to the kind of experiment: In vivo inhibition of PNMT in Sprague-Dawley rat assessed as increase in norepinephrine level in adrenal gland at 1 mg, sc administered once daily for 20 days and measured after 24 hrs post last dose by liquid chromatography tandem mass spectrometry analysis. Type of assay: functional, organism-based. The conditions noted are these: time 20.0 day.

Assay [4] relates to Rattus norvegicus. As to the kind of experiment: In vivo inhibition of PNMT in Sprague-Dawley rat assessed as decrease in epinephrine level in adrenal gland at 1 mg, sc once daily treated for 20 days and measured after 24 hrs post last dose by liquid chromatography tandem mass spectrometry analysis. The conditions noted are these: time 20.0 day. Type of assay: functional, organism-based.

On to `CC(N)c1cccc(Cl)c1Cl` (stereo not given), for which, in assay [1], the inhibition was determined as 60%.
For `CC(C)(C)NC(=O)[C@H]1CC[C@H]2[C@@H]3CC[C@H]4NC(=O)C=C[C@]4(C)[C@H]3CC[C@]12C`, the outcome in assay [2] was inactive. For the same compound, in assay [1], the inhibition was greater than 30%. In addition, the outcome in assay [3] and in assay [4] was Active.
